Measured values as given in publication PMC8260592 (Scientific Reports, 2021).
In brackets after ≈: the same amount, converted by molar mass. Entries after “also recorded” stand apart in the source; their conditions may differ. Like-named read-outs stand apart in the source and are kept apart here.

Experiments:
[1] = target: AChE (Type VI-S from Electrophorus electricus) (Electrophorus electricus, UniProt O42275); assay: biochemical; conditions: for SI: IC50 for BChE divided by IC50 for AChE; for remaining activity at 10 µM: read-out: Residual activity at 10 µM (%) AChE; for inhibition at 10 µM: read-out: Inhibition of AChE
Method: (§1) AChE and BChE inhibitory activities were measured after preincubating enzymes with inhibitors for 15 min before adding substrates (ATCI and BTCI, respectively) and DTNB. AChE activities were assayed as previously described, with slight modification[21],[22]. […] MAO-A and MAO-B activities were determined using a continuous spectrophotometric method, as described previously[23],[24]. […] Reaction rates are expressed as changes in absorbance per min. […]

[2] = target: T1, BChE (equine serum) (Equus caballus, UniProt P81908); assay: biochemical; conditions: for remaining activity at 10 µM: read-out: Residual activity at 10 µM (%) BChE
T1 construct: BChE (equine serum); purchased Sigma-Aldrich; host or cells: equine serum
Method: as §1

[3] = target: T2, MAO-B (Homo sapiens, UniProt P27338); assay: biochemical; conditions: for IC50: read-out: IC50 (µM) MAO-B; for remaining activity at 10 µM: read-out: Residual activity at 10 µM (%) MAO-B
T2 construct: purchased Sigma-Aldrich
T2 sequence (P27338 1-520): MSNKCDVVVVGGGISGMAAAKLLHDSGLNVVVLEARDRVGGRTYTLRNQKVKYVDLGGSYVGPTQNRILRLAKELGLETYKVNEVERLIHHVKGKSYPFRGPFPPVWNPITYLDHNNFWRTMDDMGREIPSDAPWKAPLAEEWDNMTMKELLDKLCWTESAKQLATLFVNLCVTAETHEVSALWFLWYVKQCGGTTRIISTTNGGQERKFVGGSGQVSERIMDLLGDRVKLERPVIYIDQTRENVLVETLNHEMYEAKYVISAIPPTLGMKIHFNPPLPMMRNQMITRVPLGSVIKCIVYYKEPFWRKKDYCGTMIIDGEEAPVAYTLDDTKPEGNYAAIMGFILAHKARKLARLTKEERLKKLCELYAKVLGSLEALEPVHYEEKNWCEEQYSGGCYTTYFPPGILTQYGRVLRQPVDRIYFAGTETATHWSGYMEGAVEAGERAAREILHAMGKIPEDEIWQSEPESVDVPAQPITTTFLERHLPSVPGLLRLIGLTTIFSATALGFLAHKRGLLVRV
Method: (§2) AChE and BChE inhibitory activities were measured after preincubating enzymes with inhibitors for 15 min before adding substrates (ATCI and BTCI, respectively) and DTNB. AChE activities were assayed as previously described, with slight modification[21],[22]. […] MAO-A and MAO-B activities were determined using a continuous spectrophotometric method, as described previously[23],[24]. […] Reaction rates are expressed as changes in absorbance per min.
(§3) Inhibitory patterns and Ki values were determined using Lineweaver–Burk (LB) plots and secondary plots of LB slopes.

[4] = target: T3, Recombinant human MAO-A (Homo sapiens, UniProt P21397); assay: biochemical; conditions: for IC50: read-out: IC50 (µM) MAO-A; for remaining activity at 10 µM: read-out: Residual activity at 10 µM (%) MAO-A
T3 construct: purchased Sigma-Aldrich
T3 sequence (P21397 1-527): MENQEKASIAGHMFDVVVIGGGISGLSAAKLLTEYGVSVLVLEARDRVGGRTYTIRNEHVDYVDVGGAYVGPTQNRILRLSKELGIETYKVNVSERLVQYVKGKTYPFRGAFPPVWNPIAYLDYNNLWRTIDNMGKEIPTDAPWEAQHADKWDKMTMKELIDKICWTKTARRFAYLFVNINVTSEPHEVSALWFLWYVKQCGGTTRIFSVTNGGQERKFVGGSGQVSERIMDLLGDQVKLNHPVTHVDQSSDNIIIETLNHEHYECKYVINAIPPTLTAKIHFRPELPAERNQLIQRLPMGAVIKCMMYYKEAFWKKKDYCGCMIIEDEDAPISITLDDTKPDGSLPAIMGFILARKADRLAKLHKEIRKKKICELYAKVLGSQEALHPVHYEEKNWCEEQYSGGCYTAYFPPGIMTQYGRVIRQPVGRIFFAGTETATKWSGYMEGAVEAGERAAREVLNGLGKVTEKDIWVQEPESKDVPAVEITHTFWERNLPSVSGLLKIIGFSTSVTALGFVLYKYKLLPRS
Method: as §2, §3

[5] = target: T4, BACE-1 (Homo sapiens, UniProt P56817); assay: BACE-1 activity detection kit (fluorescence); type: biochemical; conditions: read-out: Residual activity at 10 µM (%) BACE-1
T4 construct: purchased Sigma-Aldrich

[6] = target: T5, AChE (Electrophorus electricus, UniProt O42275); assay: Reversibility of AChE inhibition by dialysis; type: biochemical
Method: (§4) After preincubating three compounds or reference inhibitors with enzymes for 15 min, residual activities of undialyzed (AU) and dialyzed (AD) samples were expressed as percentages of those of non-inhibitor treated controls. Reversibilities were assessed using AU and AD values and compared with those of reference compounds.
(§5) After preincubating the compounds with enzymes for 15 min, the mixtures were dialyzed for 6 h with two buffer changes. Results are the averages of duplicate or triplicate experiments.

[7] = target: T2, MAO-B; assay: Reversibility of MAO-B inhibition by dialysis; type: biochemical
Method: as §4, §5

[8] = target: T5, AChE; assay: Kinetics of AChE inhibition (Lineweaver-Burk and secondary plots); type: biochemical; conditions: for Mode of AChE inhibition: LB plots; for Ki: secondary plots of LB slopes, substrate 0.05-1.0 mM, read-out: Ki for AChE
Method: as §3
Substrate concentrations ranged from 0.05 to 1.0 mM. […] Initial reaction rates are expressed as increases in absorbance per min.

[9] = target: T2, MAO-B; assay: Kinetics of MAO-B inhibition (Lineweaver-Burk and secondary plots); type: biochemical
Method: as §3

[10] = tested on: Madin-Darby canine kidney (MDCK) cells; assay: Cytotoxicity test, CCK-8 assay; conditions: 50 µM, 24 h, CCK-8
Method: (§6) Madin-Darby canine kidney (MDCK) cells and human acute promyelocytic leukemia (HL-60) cells were obtained from the Korean Cell Line Bank (Seoul, Korea). […] Cultures were maintained at 37 °C under 5% CO2, and media were changed every two days.
(§7) Cell viabilities were determined using the CCK-8 assay. Briefly, MDCK cells or HL-60 cells were resuspended at 1 × 10^5 or 3 × 10^5 cells/mL and suspensions (100 µL) were added to wells of a 96-well plate and incubated in 5% CO2 atmosphere at 37 °C for 24 h. After incubation, 100 µL of each medium was treated with compounds at 1, 3, 10, 30, or 50 µM and incubated in 5% CO2 at 37 °C for 24 h. CCK-8 (10 µL/well) was then added to 100 µL aliquots from each cell and incubated 2–4 h. Absorbances were measured at 450 nm using a microplate reader (Versamax, Molecular Devices, San Jose, CA, USA).
(§8) Both cell lines were treated with each compound (at 1, 3, 10, 30, or 50 µM) for 24 h. Culture supernatants were then removed and CCK-8 was added. […] Data are expressed as the means ± SDs of triplicate experiments.

[11] = tested on: human acute promyelocytic leukemia (HL-60) cells; assay: Cytotoxicity test, CCK-8 assay; conditions: 50 µM, 24 h, CCK-8
Method: as §6, §7, §8

[12] = Cytotoxicity test, CCK-8 assay
Method: as §6, §7, §8

[13] = tested on: AChE; conditions: cited from earlier work

T1 sequence (P81908 whole entry): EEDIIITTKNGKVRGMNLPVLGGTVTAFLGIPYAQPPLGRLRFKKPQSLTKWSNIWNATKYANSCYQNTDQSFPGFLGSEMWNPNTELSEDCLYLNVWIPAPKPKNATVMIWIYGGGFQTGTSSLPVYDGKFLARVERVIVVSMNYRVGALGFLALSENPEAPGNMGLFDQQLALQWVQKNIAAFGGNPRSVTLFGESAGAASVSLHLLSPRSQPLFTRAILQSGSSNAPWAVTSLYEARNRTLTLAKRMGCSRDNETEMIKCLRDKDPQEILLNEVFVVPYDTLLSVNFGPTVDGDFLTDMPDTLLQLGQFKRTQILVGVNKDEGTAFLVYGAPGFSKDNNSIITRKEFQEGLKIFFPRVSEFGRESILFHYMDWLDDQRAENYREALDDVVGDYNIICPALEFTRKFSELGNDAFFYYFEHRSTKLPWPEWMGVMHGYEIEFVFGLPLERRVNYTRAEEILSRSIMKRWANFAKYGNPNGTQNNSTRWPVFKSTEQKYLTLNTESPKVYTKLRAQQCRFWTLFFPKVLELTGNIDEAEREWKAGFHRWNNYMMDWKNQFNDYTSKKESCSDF
T4 sequence (P56817 46-457): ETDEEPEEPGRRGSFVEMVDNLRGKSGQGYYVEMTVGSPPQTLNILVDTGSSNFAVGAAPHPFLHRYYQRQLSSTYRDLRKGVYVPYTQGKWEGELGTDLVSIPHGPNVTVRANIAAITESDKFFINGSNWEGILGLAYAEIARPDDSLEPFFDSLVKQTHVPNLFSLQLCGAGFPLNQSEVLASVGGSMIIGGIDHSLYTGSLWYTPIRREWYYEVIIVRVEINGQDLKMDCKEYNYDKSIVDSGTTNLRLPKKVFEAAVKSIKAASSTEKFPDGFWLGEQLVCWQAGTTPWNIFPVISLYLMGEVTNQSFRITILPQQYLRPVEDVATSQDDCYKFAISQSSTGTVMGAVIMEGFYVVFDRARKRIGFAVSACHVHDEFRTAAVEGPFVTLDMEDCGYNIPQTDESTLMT
AChE (Type VI-S from Electrophorus electricus), sequence (O42275 24-633): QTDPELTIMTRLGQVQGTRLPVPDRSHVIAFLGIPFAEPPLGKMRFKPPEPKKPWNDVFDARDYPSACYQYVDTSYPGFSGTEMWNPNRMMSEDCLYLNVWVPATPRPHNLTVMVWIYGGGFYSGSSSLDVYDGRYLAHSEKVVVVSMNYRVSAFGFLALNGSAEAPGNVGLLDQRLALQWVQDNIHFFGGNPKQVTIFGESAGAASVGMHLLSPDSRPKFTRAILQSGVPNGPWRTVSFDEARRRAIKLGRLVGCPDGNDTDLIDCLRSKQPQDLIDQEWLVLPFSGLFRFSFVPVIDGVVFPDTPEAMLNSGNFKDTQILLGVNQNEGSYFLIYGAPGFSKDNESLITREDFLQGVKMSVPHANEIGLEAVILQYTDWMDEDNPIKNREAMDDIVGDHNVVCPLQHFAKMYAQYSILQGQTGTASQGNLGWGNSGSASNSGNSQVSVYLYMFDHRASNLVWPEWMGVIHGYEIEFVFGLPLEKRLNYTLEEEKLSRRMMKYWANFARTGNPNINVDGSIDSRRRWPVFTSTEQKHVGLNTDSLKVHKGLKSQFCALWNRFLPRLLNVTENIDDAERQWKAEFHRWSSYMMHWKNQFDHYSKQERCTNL
T5 sequence (O42275 24-633): as above

Q: Which IC50 [1] does the source give for `O=C(OCc1cc(O)c(O[C@@H]2O[C@H](CO)[C@@H](O)[C@H](O)[C@H]2O)c(O)c1)c1cc(O)c(O)c(Oc2c(C(=O)OCc3cc(O)c(O[C@@H]4O[C@H](CO)[C@@H](O)[C@H](O)[C@H]4O)c(O)c3)cc(O)c(O)c2O)c1` [Compound 1, chestanin] here?
A: 37 ± 3 µM

Q: And the SI [1]?
A: > 1.1

Q: What about the remaining activity at 10 µM [1] of the same molecule?
A: 72.5 ± 2.1%

Q: And the IC50 [2]?
A: > 40 µM

Q: What about the remaining activity at 10 µM [2] of the same molecule?
A: 96.2 ± 3.9%

Q: What about the IC50 [3] of the same molecule?
A: > 40 µM

Q: What about the remaining activity at 10 µM [3] of the same molecule?
A: 67.2 ± 8.1%

Q: What about the IC50 [4] of the same molecule?
A: > 40 µM

Q: And the remaining activity at 10 µM [4]?
A: 91.7 ± 1.6%

Q: What about the remaining activity at 10 µM [5] of the same molecule?
A: 78.9 ± 0.3%

Q: With `COc1cc2c(=O)oc3c(OC)c(O[C@@H]4O[C@H](CO)[C@@H](O)[C@H](O)[C@H]4O)cc4c(=O)oc(c1OC)c2c34` [Compound 2, 4′-O-(β-D-glucopyranosyl)-3,3′,4-tri-O-methylellagic acid] as the molecule, how does the IC50 [1] read?
A: 46.4 ± 2.7 µM

Q: And the SI [1]?
A: > 0.9

Q: What about the remaining activity at 10 µM [1] of the same molecule?
A: 70.5 ± 5%

Q: What about the IC50 [2] of the same molecule?
A: > 40 µM

Q: And the remaining activity at 10 µM [2]?
A: 90.8 ± 4.2%

Q: And the IC50 [3]?
A: > 40 µM

Q: And the remaining activity at 10 µM [3]?
A: 60.9 ± 5.2%

Q: And the IC50 [4]?
A: > 40 µM

Q: And the remaining activity at 10 µM [4]?
A: 91.3 ± 7.9%

Q: And the remaining activity at 10 µM [5]?
A: 91.9 ± 1%

Q: For `COc1cc2c(=O)oc3c(OC)c(O[C@@H]4O[C@@H](C)[C@H](O)[C@@H](O)[C@H]4O)cc4c(=O)oc(c1OC)c2c34` [Compound 3, 4′-O-(α-L-rhamnopyranosyl)-3,3′,4-tri-O-methylellagic acid], which IC50 [1] is on record?
A: 10.1 ± 0.4 µM

Q: What about the SI [1] of the same molecule?
A: > 4.0

Q: And the inhibition at 10 µM [1]?
A: ~50%

Q: And the remaining activity at 10 µM [1]?
A: 55.4 ± 3.4%

Q: What about the IC50 [2] of the same molecule?
A: > 40 µM

Q: What about the remaining activity at 10 µM [2] of the same molecule?
A: 83.3 ± 2.1%

Q: What about the inhibition at 10 µM ([3]; 10 µM) of the same molecule?
A: > 50%

Q: And the IC50 [3]?
A: 7.27 ± 0.16 µM

Q: What about the remaining activity at 10 µM [3] of the same molecule?
A: 43.2 ± 3.7%

Q: What about the IC50 [4] of the same molecule?
A: > 40 µM

Q: What about the remaining activity at 10 µM [4] of the same molecule?
A: 83 ± 6.3%

Q: And the remaining activity at 10 µM [5]?
A: 99.7 ± 0.4%

Q: What about the “Reversibility of AChE inhibition” value [6] of the same molecule?
A: reversibly; also recorded: reversible inhibitors

Q: And the “Reversibility of MAO-B inhibition” value [7]?
A: reversible inhibitors

Q: What about the “Mode of AChE inhibition” value [8] of the same molecule?
A: competitively; also recorded: competitive but partly mixed; also recorded: competitive but partially mixed

Q: And the Ki [8]?
A: 5.37 ± 0.62 µM

Q: What about the “Mode of MAO-B inhibition” value ([9]; LB plots) of the same molecule?
A: competitive

Q: What about the Ki ([9]; secondary plots of LB slopes, substrate 0.0375-0.6 mM, read-out: Ki for MAO-B) of the same molecule?
A: 2.25 ± 0.01 µM

Q: What about the MDCK cell viability [10] of the same molecule?
A: slightly or non-toxic; also recorded: negligible effects; also recorded: non-toxic or slightly toxic

Q: What about the HL-60 cell viability [11] of the same molecule?
A: negligible effects; also recorded: non-toxic or slightly toxic

Q: Which IC50 [1] does the source give for `COc1cc2c(=O)oc3c(OC)c(O)cc4c(=O)oc(c1OC)c2c34` [Compound 4, 3,3′,4-tri-O-methylellagic acid] here?
A: 10.7 ± 1 µM

Q: And the SI [1]?
A: > 3.7

Q: And the inhibition at 10 µM [1]?
A: ~50%

Q: What about the remaining activity at 10 µM [1] of the same molecule?
A: 53.2%

Q: And the IC50 [2]?
A: > 40 µM

Q: What about the remaining activity at 10 µM [2] of the same molecule?
A: 92.3 ± 2.3%

Q: And the IC50 [3]?
A: > 40 µM

Q: What about the remaining activity at 10 µM [3] of the same molecule?
A: 89.1 ± 4.1%

Q: What about the IC50 [4] of the same molecule?
A: > 40 µM

Q: What about the remaining activity at 10 µM [4] of the same molecule?
A: 83.1 ± 4.7%

Q: What about the remaining activity at 10 µM [5] of the same molecule?
A: 90.1 ± 0.4%

Q: What about the “Reversibility of AChE inhibition” value [6] of the same molecule?
A: reversibly; also recorded: reversible inhibitors

Q: What about the “Mode of AChE inhibition” value [8] of the same molecule?
A: competitively; also recorded: competitive but partly mixed; also recorded: competitive but partially mixed

Q: And the Ki [8]?
A: 3.74 ± 0.26 µM

Q: What about the viability at 24 h, 50 µM ([12]; dog, MDCK cells) of the same molecule?
A: 67.9%

Q: What about the viability at 24 h, 50 µM ([12]; human, HL-60 cells) of the same molecule?
A: 84.6%

Q: What about the MDCK cell viability [10] of the same molecule?
A: slightly or non-toxic; also recorded: non-toxic or slightly toxic

Q: What about the HL-60 cell viability [11] of the same molecule?
A: non-toxic or slightly toxic

Q: For `COc1cc(/C=C/C(=O)CC(=O)/C=C/c2ccc(O)c(OC)c2)ccc1O` [curcumin], which IC50 ([13]; ref 51) is on record?
A: 23.5 µM

Q: For `O=C(O[C@@H]1Cc2c(O)cc(O)cc2O[C@@H]1c1cc(O)c(O)c(O)c1)c1cc(O)c(O)c(O)c1` [epigallocatechin gallate], which IC50 ([13]; ref 52) is on record?
A: 14.8 µM

Q: For `COc1ccc2c3c1O[C@H]1C[C@@H](O)C=C[C@@]31CCN(C)C2` [galantamine], which IC50 ([13]; ref 46) is on record?
A: […]

Q: And the IC50 ([13]; ref 47)?
A: […]

Q: And the “IC50 AChE” value ([13]; ref 47)?
A: […]
